According to US5932541A, “Method of adjusting the circadian rhythm of a mammal” (Gruenenthal GmbH, priority 1998, dated 1999):

What was measured:
[1] = system: circadian rhythm of hamster wheel running activity; test: Phase shift of the circadian rhythm of hamster wheel running activity after intraperitoneal injection; type: in vivo, hamster (Mesocricetus auratus)
Description: A preliminary study was conducted to determine whether peripherally administered 6-methyl-5-oxo-3-thiomorpholinyl-carbonyl-L-histidyl-L-prolinamide (Montirelin) is capable of phase shifting the circadian rhythm of hamster wheel running activity. Twenty-four male hamsters [Mesocricetus auratus; 8-12 weeks of age; Charles River LAK:LVG(SYR)] were housed individually in cages equipped with running wheels, and food and water freely available. Animals were maintained in light-tight, ventilated cabinets (six cages per cabinet) in which the lighting schedule could be controlled. Each animal's wheel running activity was monitored continuously throughout each experiment using a data acquisition software kit (Chronobiology, Stanford, Calif.).
(§1) Animals were maintained initially in a 14:10 hour light:dark cycle for 7-10 days, then transferred to constant dim red lighting (RR) conditions for the remainder of the experiment (40-60 days). After free-running for 7 days in dim red lighting, animals either received Montirelin or vehicle intraperitoneally. The daily onset of wheel-running activity was defined as circadian time 12 (CT 12), and this time was used as a reference point in determining appropriate circadian injection times. The test animals were divided into eight groups of three animals each, and intraperitoneal injections of the active compound at dosage levels of 10 or 20 mg/kg or of the vehicle alone were administered to respective test groups at circadian time 3 (CT 3) or circadian time 16 (CT 16). The order of injections and time points was randomized. An additional 4 animals maintained in similar lighting conditions were visually observed for two hours post-injection of Montirelin (10 or 20 mg/kg) to determine any overt behavioral effects exerted by this compound. A total of 9 injections were made for each of the eight treatment groups.
Phase shifts in the circadian activity rhythm were determined by measuring the phase difference between eye-fitted lines connecting the onset of activity for a period of ten days before and ten days after an experimental manipulation.

[2] = system: Sprague-Dawley rats; test: Subacute repeated-dose intravenous toxicity study with four-week recovery
Description: Eight nine SPF Slc:SD rats of both sexes (age: four weeks, body weight: 70.0-81.6 g) were purchased from Shizuoka Agriculture Cooperative Association for Laboratory Animals. During a one-week quarantine/acclimation period, the animals were measured for body weight and observed for any general symptoms, and healthy animals showing normal growth were selected and used in the experiment at the age of five weeks.
Males and females were used in five groups (including the control group) of 10 animals/sex, and additional 10 animals/sex ere added to the control, 0.5 mg/kg and 50 mg/kg groups to investigate the reversibility of the toxic effect of the test substance. All these animals were randomized to each group by weight stratification so that the differences in initial mean body weight were within 2% between groups.
This study also included the vehicle control group.
Dosing solutions were prepared by dissolving a weighed amount of the test substance in physiological saline at a concentration of 1 W/V % using a volumetric flask. Lower dosing solutions were obtained by successive 10-fold dilution of the initial solution. The respective dosing solution was repeatedly administered intravenously once daily for 35 days into the tail vein at a rate of 0.2 ml/10 sec. using a 1/4 syringe for injection. The treatment was given at a constant volume of 0.5 ml/100 g body weight in all dose groups, and the control group was treated with physiological saline at the same volume in the same manner.
Clinical signs in all animals were observed daily between two and four hours after dosing according to Irwin's method of comprehensive observational assessment, and the type, severity, onset time and disappearance time of toxic symptoms were recorded. During the recovery period, the clinical observation was performed once daily in the morning in the same manner. The body weight, food consumption and water consumption were measured in all animals three times weekly in the morning throughout the treatment and recovery periods and recorded.

[3] = system: hamsters; test: Visual observation of overt behavior for two hours post-injection; type: in vivo, hamster (Mesocricetus auratus)
Description: as §1

[4] = 20 mg/kg i.p., at both CT 3 and CT 16, individual hamsters
[5] = both sexes, 50 mg/kg, within the range of normal physiological variations

CC1SCC(C(=O)N[C@@H](Cc2c[nH]cn2)C(=O)N2CCC[C@H]2C(N)=O)NC1=O (stereo partly drawn) [Montirelin, 6-methyl-5-oxo-3-thiomorpholinylcarbonyl-L-histidyl-L-prolinamide]
Effects on the Phase of Wheel Running Activity, Group Averages ([1]; 10 mg/kg i.p. at CT 3): 4.3 ± 2.2 min | Effects on the Phase of Wheel Running Activity, Group Averages ([1]; 10 mg/kg i.p. at CT 16): 3.5 ± 2.3 min | Effects on the Phase of Wheel Running Activity, Group Averages ([1]; 20 mg/kg i.p. at CT 3): 5.5 ± 2.4 min | Effects on the Phase of Wheel Running Activity, Group Averages ([1]; 20 mg/kg i.p. at CT 16): 3.1 ± 2.0 min | phase advances in individual hamsters [1, 4]: ≈ 16 min. | phase delays in individual hamsters [1, 4]: ≈ 10 min. | clinical signs: polyuria ([2]; 5 mg/kg or higher groups, almost all males and females, peak about one hour after dosing day 0-3, disappearing by day 4-28): transient polyuria | clinical signs: systemic tremor ([2]; 50 mg/kg group, both sexes, from day 0, disappearing by day 6 in males, day 4 in females): systemic tremor was observed transiently during the injection | blood biochemical parameters ([2]; all treatment groups): No treatment-related abnormalities | gross changes at autopsy ([2]; all treatment groups): no treatment-related grossly abnormal changes | histopathology of other organs (light microscopy); liver and kidney (electron microscopy) ([2]; all treatment groups): no remarkable changes | histopathology: hypertrophy of serous cells in the submaxillary gland ([2]; both sexes of all treatment groups): showed dose-dependency | water consumption ([2]; both sexes receiving 5 mg/kg or above, day 2-3 until about week 4): increased | red blood cell count, hemoglobin and hematocrit [2, 5]: increasing tendency | total white blood cell count [2, 5]: decreasing tendency | food consumption and body weight, females ([2]; females): unremarkable | reversibility of observed changes ([2]; four-week recovery after discontinuing administration): All observed changes were reversed | urinary findings (urine volume) ([2]; males and females receiving 5 mg/kg or above, week 2 and 5 of treatment): unremarkable except for an increase in urine volume | body weight gain, males ([2]; males, particularly 0.5, 5 and 50 mg/kg): suppressed | death ([2]; rats, i.v. once daily 35 days, 0.05-50 mg/kg/day, administration and recovery periods): no death occurred | food consumption, males ([2]; treated males compared with control males): tended to decrease food consumption | overt behavior versus vehicle ([3]; 10 mg/kg i.p. at CTs 3 and 16): no differences in overt behavior | overt behavior versus vehicle ([3]; 20 mg/kg i.p. at both CT 3 and CT 16): clear differences in overt behaviors
